In ChEMBL document CHEMBL1275493, “Anti-human immunodeficiency virus type 1 activities of antimicrobial peptides derived from human and bovine cathelicidins” (Antimicrob Agents Chemother, 2008):
Peptide text beside a SMILES is read from it.

Assays:
[1] = Therapeutic index, TC50 for Human immunodeficiency virus 1 3B infected human CEM-SS cells to EC50 for immunodeficiency virus 1 3B; type: cell-based; conditions: CEM-SS cells infected with HIV-1 3B, read-out: TI
CEM-SS = test: Cytotoxicity against Human immunodeficiency virus 1 3B infected human CEM-SS cells; type: functional; conditions: read-out: TC50 (the source's name)
[2] = test system: Human immunodeficiency virus 1; test: Antiviral activity against Human immunodeficiency virus 1 3B infected in CEM-SS cells; type: functional, organism-based

Structure (SMILES) | EC50 [2] | selectivity ratio [1] | CC50 (CEM-SS)
CC[C@H](C)[C@H](NC(=O)[C@H](CCCNC(=N)N)NC(=O)[C@H](CCC(N)=O)NC(=O)[C@@H](NC(=O)[C@@H](NC(=O)[C@H](CCCNC(=N)N)NC(=O)[C@H](CCCCN)NC(=O)[C@@H](N)Cc1ccccc1)[C@@H](C)CC)C(C)C)C(=O)N[C@@H](CCCCN)C(=O)N[C@@H](CC(=O)O)C(=O)N[C@@H](Cc1ccccc1)C(=O)N[C@@H](CC(C)C)C(=O)N[C@@H](CCCNC(=N)N)C(=O)O (H-FKRIVQRIKDFLR-OH) | 3.4 µM | 3.1 | 10.4 µM
CC[C@H](C)[C@H](NC(=O)[C@H](CCCCN)NC(=O)[C@H](CCCCN)NC(=O)[C@H](Cc1ccccc1)NC(=O)[C@H](CC(C)C)NC(=O)[C@H](CCCCN)NC(=O)[C@H](CCCCN)NC(=O)[C@H](NC(=O)[C@H](CCCCN)NC(=O)[C@H](CCCCN)NC(=O)[C@H](CCCNC(=N)N)NC(=O)[C@H](NC(=O)[C@H](CCCNC(=N)N)NC(=O)[C@H](CCCCN)NC(=O)[C@H](Cc1ccccc1)NC(=O)[C@H](CCCNC(=N)N)NC(=O)CN)c1ccccc1)c1ccccc1)C(=O)N[C@@H](CO)C(=O)O | 0.68 µM | 15 | 10.2 µM
CC[C@H](C)[C@H](NC(=O)[C@H](CCCCN)NC(=O)[C@H](CCC(=O)O)NC(=O)[C@H](CCCCN)NC(=O)[C@@H](N)CO)C(=O)NCC(=O)N[C@@H](CCCCN)C(=O)N[C@@H](CCC(=O)O)C(=O)N[C@@H](Cc1ccccc1)C(=O)N[C@@H](CCCCN)C(=O)N[C@@H](CCCNC(=N)N)C(=O)N[C@H](C(=O)N[C@H](C(=O)N[C@@H](CCC(N)=O)C(=O)N[C@@H](CCCNC(=N)N)C(=O)N[C@H](C(=O)N[C@@H](CCCCN)C(=O)N[C@@H](CC(=O)O)C(=O)N[C@@H](Cc1ccccc1)C(=O)N[C@@H](CC(C)C)C(=O)N[C@@H](CCCNC(=N)N)C(=O)O)[C@@H](C)CC)C(C)C)[C@@H](C)CC (H-SKEKIGKEFKRIVQRIKDFLR-OH) | 10.8 µM | 2.08 | 22.5 µM
CC[C@H](C)[C@H](NC(=O)CN)C(=O)N[C@@H](CCCCN)C(=O)N[C@@H](CCC(=O)O)C(=O)N[C@@H](Cc1ccccc1)C(=O)N[C@@H](CCCCN)C(=O)N[C@@H](CCCNC(=N)N)C(=O)N[C@@H](CCC(=O)O)C(=O)N[C@@H](Cc1ccccc1)C(=O)N[C@@H](CCC(N)=O)C(=O)N[C@@H](CCCNC(=N)N)C(=O)N[C@H](C(=O)N[C@@H](CCCCN)C(=O)N[C@@H](CC(=O)O)C(=O)N[C@@H](Cc1ccccc1)C(=O)N[C@@H](CC(C)C)C(=O)N[C@@H](CCCNC(=N)N)C(=O)N[C@@H](CC(N)=O)C(=O)N[C@@H](CC(C)C)C(=O)N[C@H](C(=O)O)C(C)C)[C@@H](C)CC (H-GIKEFKREFQRIKDFLRNLV-OH) | 1.6 µM | 6.2 | –

Further compounds by falling EC50 [2], results first:

EC50 [2] | Structure (SMILES) | selectivity ratio [1] | CC50 (CEM-SS)
3.2 µM | CC[C@H](C)[C@H](NC(=O)[C@H](CCCCN)NC(=O)[C@H](CCCCN)NC(=O)[C@H](Cc1ccccc1)NC(=O)[C@H](CC(C)C)NC(=O)[C@H](CCCCN)NC(=O)[C@H](CCCCN)NC(=O)[C@H](Cc1ccccc1)NC(=O)[C@@H]1CCCN1C(=O)[C@H](CCCCN)NC(=O)[C@H](CCCNC(=N)N)NC(=O)[C@H](Cc1ccccc1)NC(=O)[C@H](CCCNC(=N)N)NC(=O)[C@H](CCCCN)NC(=O)[C@H](Cc1ccccc1)NC(=O)[C@H](CCCNC(=N)N)NC(=O)CN)C(=O)N[C@@H](CO)C(=O)O (H-GRFKRFRKPFKKLFKKIS-OH) | 5.9 | 18.9 µM
1.08 µM | CC[C@H](C)[C@H](NC(=O)CN)C(=O)N[C@@H](CCCCN)C(=O)N[C@@H](CCC(=O)O)C(=O)N[C@@H](Cc1ccccc1)C(=O)N[C@@H](CCCCN)C(=O)N[C@@H](CCCNC(=N)N)C(=O)N[C@H](C(=O)N[C@H](C(=O)N[C@@H](CCC(N)=O)C(=O)N[C@@H](CCCNC(=N)N)C(=O)N[C@H](C(=O)N[C@@H](CCCCN)C(=O)N[C@@H](CC(=O)O)C(=O)N[C@@H](Cc1ccccc1)C(=O)N[C@@H](CC(C)C)C(=O)N[C@@H](CCCNC(=N)N)C(=O)N[C@@H](CC(N)=O)C(=O)N[C@@H](CC(C)C)C(=O)N[C@H](C(=O)O)C(C)C)[C@@H](C)CC)C(C)C)[C@@H](C)CC (H-GIKEFKRIVQRIKDFLRNLV-OH) | 21 | 22.7 µM
0.98 µM | CC[C@H](C)[C@H](NC(=O)[C@H](CCCNC(=N)N)NC(=O)[C@H](CCC(N)=O)NC(=O)[C@@H](NC(=O)[C@@H](NC(=O)[C@H](CCCNC(=N)N)NC(=O)[C@H](CCCCN)NC(=O)[C@H](Cc1ccccc1)NC(=O)CN)[C@@H](C)CC)C(C)C)C(=O)N[C@@H](CCCCN)C(=O)N[C@@H](CC(=O)O)C(=O)N[C@@H](Cc1ccccc1)C(=O)N[C@@H](CC(C)C)C(=O)N[C@@H](CCCNC(=N)N)C(=O)N[C@@H](CC(N)=O)C(=O)N[C@@H](CC(C)C)C(=O)N[C@H](C(=O)O)C(C)C | 9.1 | 8.9 µM
0.35 µM | CC[C@H](C)[C@H](NC(=O)[C@H](CCCCN)NC(=O)[C@H](CCCCN)NC(=O)[C@H](Cc1ccccc1)NC(=O)[C@H](CC(C)C)NC(=O)[C@H](CCCCN)NC(=O)[C@H](CCCCN)NC(=O)[C@H](Cc1ccccc1)NC(=O)[C@H](CCCCN)NC(=O)[C@H](CCCCN)NC(=O)[C@H](CCCNC(=N)N)NC(=O)[C@H](Cc1ccccc1)NC(=O)[C@H](CCCNC(=N)N)NC(=O)[C@H](CCCCN)NC(=O)[C@H](Cc1ccccc1)NC(=O)[C@H](CCCNC(=N)N)NC(=O)CN)C(=O)N[C@@H](CO)C(=O)O (H-GRFKRFRKKFKKLFKKIS-OH) | 24.1 | 8.45 µM
